Data reported in patent publication US20230293535A1, “ERBB/BTK INHIBITORS” (Dizal (Jiangsu) Pharmaceutical Co., Ltd., priority 2018, published 2023).
Where a name gives a salt, the structure may show the parent alone.

Columns and labels:
[1] = target: T1, human EGFR exon 20 H773_V774insNPH (Homo sapiens, UniProt P00533, INS773NPH); assay: EGFR Exon20 NPH insertion cellular phosphorylation inhibition (MSD pEGFR Y1068/total EGFR); format: cell-based; settings: Ba/F3 EGFR NPH ins cells, 4 h compound, p-EGFR(Y1068)/total EGFR;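 note: IL3-independent Ba/F3 cells with constitutively phosphorylated EGFR, compound exposure at 37 °C under 5% CO2, electrochemiluminescent MSD measurement of the p-EGFR to total EGFR ratio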
T1 construct: host or cells: Ba/F3

[2] = target: T2, human EGFR exon 20 V769_D770insASV (Homo sapiens, UniProt P00533, INS769ASV); assay: EGFR Exon20 ASV insertion cellular phosphorylation inhibition (MSD pEGFR Y1068/total EGFR); format: cell-based; settings: Ba/F3 EGFR ASV ins cells, 4 h compound, p-EGFR(Y1068)/total EGFR;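 note: electrochemiluminescent readout on an MSD SECTOR Imager, IL3-independent transduced cells in medium with 1% FBS, compound concentration series at 37 °C and 5% CO2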
T2 construct: expressed in transfected cells; host or cells: Ba/F3 (DSMZ ACC-300), lentiviral transduction, puromycin selection, IL3 depletion

[3] = target: T3, EGFR L858R&T790M (Homo sapiens, UniProt P00533, L858R/T790M); assay: EGFR L858R and T790M cellular phosphorylation inhibition in NCI-H1975 (MSD); format: cell-based; settings: NCI-H1975 cells, 4 h compound, p-EGFR(Y1068)/total EGFR; read-out: EGFR L858R and T790M mutation IC50;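 note: phosphorylated and total EGFR detected by electrochemiluminescence, cells exposed to compound in medium containing 1% FBS at 37 °C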
T3 construct: host or cells: NCI-H1975

[4] = target: T4, human Her2 exon 20 insertion mutation YVMA (Homo sapiens, UniProt P04626, INS775YVMA); assay: Her2 Exon 20 YVMA insertion cellular phosphorylation inhibition (MSD p-Her2 Y1248/total Her2); format: cell-based; settings: Her2 YVMAins cells, 4 h compound;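 note: lentivirally transduced NIH-3T3 cells in 1% FBS medium, electrochemiluminescent MSD read-out, graded compound concentrations at 37 °C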
T4 construct: expressed in transfected cells; host or cells: NIH-3T3, lentiviral transduction, puromycin selection

[5] = target: T5, WT EGFR (Homo sapiens, UniProt P00533); assay: WT EGFR cellular phosphorylation inhibition in A-431 (hEGF stimulated, MSD); format: cell-based; settings: A431 cells, 4 h compound, then 100 ng/ml hEGF 10 min;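 note: electrochemiluminescence read-out of EGFR Tyr1068 phosphorylation expressed as ratio to total EGFR, cells kept in medium with 1% FBS, compounds tested as a concentration series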
T5 construct: host or cells: A-431
Description: One day before the test, WT or mutant cells were seeded in 96 well plates at appropriate concentrations with corresponding growth media supplemented with 1% FBS, and incubated overnight. The next day, tested compounds at a series of concentrations were added into each individual well of the plates, and the plates were incubated for 4 h at 37° C. with 5% CO2.
The EGFR (Y1068) phosphorylation level (activity) of cells in each well were then measured with MSD kit named “MULTI-SPOT®96 4-Spot HB Prototype EGFR Triplex [sequence]: pEGFR(Tyr1068),pEGFR(Tyr1173), Total EGFR” according to the manufacturer’s instruction (MESO SCALE DISCOVERY, Cat# N45ZB-1). The assay is an electrochemiluminescent method for determining both phosphorylated and total EGFR of cells with an MSD SECTOR® Imager and the ratio of p-EGFR/total EGFR can be generated by the machine. The Her2 (Y1248) phosphorylation level (activity) of cells in each well were measured with MSD Kit named “Phospho-ErbB2 (Tyr1248) Assay Whole Cell Lysate Kit” according to the manufacturer’s instruction (MESO SCALE DISCOVERY, Cat# K151CLD-3). The assay is an electrochemiluminescent method (MESO SCALE DISCOVERY) for determining both phosphorylated and total Her2 of cells with an MSD SECTOR® Imager and then the ratio of p-Her2/total Her2 can be generated by the machine.

[6] = tested on: Ba/F3 EGFR NPH ins cells; assay: Cell proliferation, Ba/F3 EGFR NPH ins (CellTiter-Glo, 72 h); format: cell-based; settings: Ba/F3 EGFR, 72 h, Ba/F3 EGFR NPH ins, 72 h proliferation; read-out: EGFR Exon20 NPH insertion GI50;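 note: IL3-independent cells carrying constitutively phosphorylated EGFR, compound dilution series, viable cells quantified by ATP luminescence, growth relative to DMSO wells after subtracting pre-dosing (day 0) baseline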
[7] = tested on: Ba/F3 EGFR ASV ins cells; assay: Cell proliferation, Ba/F3 EGFR ASV ins (CellTiter-Glo, 72 h); format: cell-based; settings: Ba/F3 EGFR, 72 h, Ba/F3 EGFR ASV ins, 72 h proliferation; read-out: EGFR Exon20 ASV insertion GI50;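 note: IL3-independent Ba/F3 cells transduced with EGFR V769_D770insASV, cellular ATP luminescence after compound exposure, growth relative to DMSO control with the day-0 baseline reading subtracted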
[8] = tested on: NCI-H1975 EGFR L858R/T790M cells; assay: Cell proliferation, NCI-H1975 EGFR L858R/T790M (CellTiter-Glo, 72 h); format: cell-based; settings: Homo sapiens, NCI-H1975, 72 h, NCI-H1975, 72 h proliferation; read-out: EGFR L858R and T790M mutation GI50;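 note: viable cells quantified by luciferase-based ATP luminescence, proliferation expressed relative to DMSO-treated wells (100%) after subtracting a parallel plate read at the time of dosing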
[9] = tested on: Her2 exon 20 insertion YVMA transduced NIH-3T3 cell line; assay: Cell proliferation, Her2 YVMAins NIH-3T3 (CellTiter-Glo, 72 h); format: cell-based; settings: Mus musculus, NIH3T3, 72 h, Her2 YVMAins cells, 72 h proliferation; read-out: Her2 Exon 20 YVMA insertion GI50;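 note: viable cells quantified by ATP luminescence, growth over a day-zero baseline plate expressed as percent of DMSO control growth, compound dilution series in 10% FBS medium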
Description: WT or mutant cells were seeded in 384 well plates at appropriate concentrations with corresponding growth media supplemented with 10% FBS, for each experiment, identical plates were prepared in duplicates, and the plates were incubated overnight. On the next day, one of each duplicated plates was dosed with tested compounds at a series of concentrations, and another one of the duplicated plate was analysied for G0 value. The dosed plates were incubate for another 72 h at 37° C. with 5% CO2 and the number of viable cells in each well of the G0 plates or the dosed plates were measured by CellTiter-Glo® Luminescent Cell Viability Assay (Promega). This assay is a luminescent method for determining the number viable cells through measurement of cellular ATP concentration by detection of luciferase activity. Detection reagents (15 µl) was dispensed into per well, and the plates were incubate for 30 min at room temperature. Then, the luminescence in each well was measured using the Envision plate reader (PerkinElmer). The percentage of proliferation was calculated based on the formula: %Proliferation= 100 × (G3 value of sample well-Go value)/(G3 value of DMSO control-Go value).

[10] = tested on: WT EGFR cell line A-431; assay: Cell proliferation, WT EGFR A431 (CellTiter-Glo, 72 h); format: cell-based; settings: Homo sapiens, A-431, 72 h, A431, 72 h proliferation; read-out: EGFR WT A431 GI50;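 note: proliferation from a luminescent ATP viability signal, expressed as 100 × (treated minus time-zero plate) over (DMSO control minus time-zero plate), cells grown with 10% FBS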
[11] = tested on: OCI-LY-10 cells; assay: BTK (wt) cell proliferation, OCI-LY-10 (CellTiter-Glo, 72 h); format: cell-based; settings: Homo sapiens, OCI-Ly10, 72 h, OCI-LY-10 cells, 72 h, CellTiter-Glo; read-out: BTK WT OCI-LY-10 GI50;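 note: viable cells quantified via cellular ATP luminescence, proliferation given as percent of DMSO control after subtracting a duplicate plate read at time of dosing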
[12] = tested on: TMD-8 cells; assay: BTK (wt) cell proliferation, TMD-8 (CellTiter-Glo, 72 h); format: cell-based; settings: Homo sapiens, TMD8, 72 h, TMD-8 cells, 72 h, CellTiter-Glo; read-out: BTK WT TMD-8 GI50;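 note: viable cells quantified by ATP-based luminescence, proliferation expressed as percent of DMSO control after subtracting a time-zero baseline plate read at dosing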
[13] = tested on: Ri-1 cells; assay: BTK (wt) cell proliferation, Ri-1 (CellTiter-Glo, 72 h); format: cell-based; settings: Ri-1, 72 h, Ri-1 cells, 72 h, CellTiter-Glo; read-out: BTK WT Ri-1 GI50;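 note: viable cells quantified as cellular ATP luminescence, proliferation normalized to a time-zero plate and the DMSO control, compounds tested across a dilution series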
Description: OCI-LY-10 at 3,750 cells/well, TMD-8 and Ri-1 at 2,000 cells/well, and DB at 1,250 cells/well, respectively, were sorted into 384-well plates in RPMI1640 medium with 10% FBS. After overnight incubation, all cells were incubated with compound at a series of concentrations. Meanwhile, a duplicated plate of each cell line was prepared for measuring G0 value. The dosed plates were further incubated for 72 hours and the number of viable cells was measured by CellTiter-Glo® Luminescent Cell Viability Assay (Promega), a luminescent method for determining the number of viable cells through measurement of cellular ATP concentration using Envision plate reader (PerkinElmer). The percentage of proliferation was calculated as: % Proliferation = 100 × (G3 value of sample well - G0 value)/(G3 value of DMSO control - G0 value).

[14] = tested on: DB cells; assay: BTK (wt) cell proliferation, DB (CellTiter-Glo, 72 h); format: cell-based; settings: Homo sapiens, DB, DB cells, CellTiter-Glo, read-out: Non-BCR activated DB GI50;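 note: DB cells in 384-well plates given a dilution series of compound, viable cells read by ATP luminescence, growth expressed versus DMSO control after subtracting a time-zero plate reading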
[15] = target: T6, Phospho-BTK (Tyr223) (Homo sapiens, UniProt Q06187); assay: p-BTK assay in Ramos cells (HTRF Phospho-BTK Tyr223); format: cell-based; settings: pervanadate stimulated, read-out: p-BTK (Romas) IC50
T6 construct: endogenous in cells; host or cells: Ramos
Description: The assay plates were then incubated for 30 minutes at 37° C., 5% CO2. 300 uM Per vanadate (3X) was added to each well and the assay plates were again incubated for 60 minutes at 37° C., 5% CO2. Phospho-BTK (Tyr223) is detected using the HTRF® reagents (Cisbio) according to the manufacturer’s one-plate assay protocol.

[16] = target: T7, BTK (Homo sapiens, UniProt Q06187); assay: BTK target site occupancy ELISA (PBMC); format: cell-based; settings: BTK receptor occupancy
Description: (§1) An enzyme-linked immunosorbent assay (ELISA) method for the detection of free uninhibited Btk in mouse and human lysates. Human or mouse whole blood were incubated with compound for 2 hour at 37° C. Whole blood were lysed in ice-cold lysis buffer containing 50 mM Tris-HCl, pH 7.5, 150 mM NaCl, 1 mM EDTA,1% Triton X-100. […] Samples were transferred to a streptavidin-coated 96-well ELISA plate and mixed while shaking for 1 hour at room temperature. The α-Btk antibody (1:500; clone number D3H5, Cell signaling Technology, Danvers, MA, USA) was then added to the well and incubated for 1 hour at room temperature. After wash, goat α-rabbit-FW (1:5000 dilution in PBS+ 0.05% Tween-20 + 1% BSA) was added to each well and incubated for 1 h at room temperature. The ELISA was developed with addition of tetramethyl benzidine (TMB) followed by Stop Solution and read at OD 450 nm.

[17] = target: T7, BTK; assay: BTK target site occupancy ELISA (Ramos); format: cell-based; parameters: endogenous in cells; host or cells: Ramos; settings: BTK receptor occupancy, read-out: Occupancy (Romas) IC50
Description: as §1

[18] = Rat pharmacokinetic study after oral administration (SOA); format: in vivo; settings: male Han Wistar rats
Description: For rat pharmacokinetic studies, six male Han Wistar rats were purchased from Beijing Vital River and orally dosed with the test compound at 10 mg/kg in 0.5% Tween-80 and 0.5% hydroxypropyl methylcellulose (v/w). At, 0.5, 1, 2, 4, 7 and 16 hours post-dose, blood samples (>100 µL/time point) were collected from portal vein and via cardiac puncture into separate K2EDTA […] tubes, and then immediately centrifuged at 1500 g, 5 min at 4° C. to separate plasma. The plasma samples were deproteinized with 4 fold acetonitrile (including internal standard), vortex for 10 min and centrifuges for 10 minutes at 4000 g at 4° C.. The supernatantswere submitted to LC/MS/MS (API 5500, Applied Biosystems, Foster City) analysis. Two sets of standard curves were run at the beginning and end of each batch from plasma sample analysis.
Compound absorption was measured by portal vein AUC (AUCHPV) and systemic AUC (AUCSYS) observed maximum concentration (Cmax) in rats after oral administration. Dose is the actual dose used in SOA study. Find below in Table 9 data for exemplary tested compounds.

[19] = In vitro rat hepatocytes clearance assay; settings: male, rat, cryopreserved rat hepatocytes (suspension), rat hepatocytes Clint (µL/min/10^6cells), 1 µM-range incubation up to 100 min
Description: The protocol for rat/human hepatocytes metabolic stability assay is employed to determine the clearance of the compounds of the present disclosure in vitro.
Rat hepatocytes in male gender and human hepatocytes in mixed gender were obtained from commercial vendors (e.g., BioreclamationIVT) and stored at -150° C. prior to use. 10 mM stock solutions of tested compounds were prepared in DMSO. Thawing medium and supplement incubation medium (serum-free) were placed in a 37° C. water bath for at least 15 minutes prior to use. Stock solutions were diluted to 100 µM by combining 198 µL acetonitrile and 2 µL of 10 mM stock solution.
Vials of cryopreserved hepatocytes were removed from storage, ensured that vials remain at cryogenic temperatures. The vials were thawed in a 37° C. water bath with gently shaking. Vials were kept in water bath until all ice crystals had dissolved and were no longer visible. Vials were sprayed with 70% ethanol before being transferred to a biosafety cabinet. And then the contents were poured into the 50 mL thawing medium conical tube. Vials were centrifuged at 100 g for 10 minutes at room temperature.
Cell viability and density were counted using a Trypan Blue exclusion, and then cells were diluted with serum-free incubation medium to a working cell density of 1 × 10^6 viable cells/ml. […] The inactivated hepatocytes were used to prepare negative samples, which were used to exclude the misleading factor that resulted from instability of chemical itself.
Aliquots of 247.5 µL hepatocytes were dispensed into each well of a 96-well non-coated plate. The plate was placed in the incubator on an orbital shaker for approximately 10 minutes. Aliquots of 2.5 µL of the 100 µM test compounds were added into respective wells of the non-coated 96-well plate to start the reaction. This assay was performed in duplicate. The plate was incubated in the incubator on an orbital shaker for the designed time points. […] Samples were centrifuges for 20 minutes at 4000 g and aliquots of 100 µL of the supernatants were used for LC-MS/MS analysis for measurement of test compounds
In vitro hepatocyte clearance was estimated based on determination of elimination half-life (T½) of compounds disappearance from their initial concentrations. Peak area ratios of each compound (test or control) to IS was calculated. Ln (%Control) versus Incubation Time (min) curve was plotted, and the slope of a linear fitting line was calculated.

[20] = In vitro human hepatocytes clearance assay; settings: both, human, cryopreserved human hepatocytes (suspension), human hepatocytes Clint (µL/min/10^6cells), mixed gender human hepatocytes, incubation up to 100 min

T5 sequence (P00533 25-1210): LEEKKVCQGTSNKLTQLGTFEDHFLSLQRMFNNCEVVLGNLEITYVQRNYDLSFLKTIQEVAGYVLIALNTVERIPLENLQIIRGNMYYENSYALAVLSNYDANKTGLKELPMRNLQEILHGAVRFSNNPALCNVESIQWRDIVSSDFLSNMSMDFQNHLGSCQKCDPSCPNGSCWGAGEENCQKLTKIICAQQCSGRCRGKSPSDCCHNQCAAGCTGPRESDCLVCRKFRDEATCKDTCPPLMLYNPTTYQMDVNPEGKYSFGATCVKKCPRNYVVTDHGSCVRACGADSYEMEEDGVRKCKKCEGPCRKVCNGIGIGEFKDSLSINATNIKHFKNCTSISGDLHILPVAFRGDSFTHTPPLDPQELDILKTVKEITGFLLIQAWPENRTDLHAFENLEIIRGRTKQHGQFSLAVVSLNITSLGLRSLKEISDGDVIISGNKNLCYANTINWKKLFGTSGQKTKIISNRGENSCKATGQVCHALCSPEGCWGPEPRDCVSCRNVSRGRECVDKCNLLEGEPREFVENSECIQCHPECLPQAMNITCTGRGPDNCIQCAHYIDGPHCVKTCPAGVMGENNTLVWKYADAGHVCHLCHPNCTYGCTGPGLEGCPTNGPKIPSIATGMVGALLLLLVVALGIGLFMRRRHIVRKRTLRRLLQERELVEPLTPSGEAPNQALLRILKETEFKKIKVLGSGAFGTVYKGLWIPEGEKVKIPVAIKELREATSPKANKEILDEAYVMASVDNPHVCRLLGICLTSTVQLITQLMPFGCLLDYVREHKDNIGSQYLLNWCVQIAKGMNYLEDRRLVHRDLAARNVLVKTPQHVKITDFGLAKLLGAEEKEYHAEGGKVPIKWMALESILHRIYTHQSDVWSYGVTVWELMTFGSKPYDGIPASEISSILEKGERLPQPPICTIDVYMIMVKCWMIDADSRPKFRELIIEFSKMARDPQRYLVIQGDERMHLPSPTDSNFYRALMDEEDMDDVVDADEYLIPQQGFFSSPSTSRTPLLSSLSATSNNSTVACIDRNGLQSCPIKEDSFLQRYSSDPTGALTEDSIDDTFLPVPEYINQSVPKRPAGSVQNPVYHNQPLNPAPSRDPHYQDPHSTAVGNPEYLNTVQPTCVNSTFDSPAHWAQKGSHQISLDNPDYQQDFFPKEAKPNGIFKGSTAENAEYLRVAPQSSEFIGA
T4 sequence (P04626 with tags, fused parts or gaps INS775YVMA): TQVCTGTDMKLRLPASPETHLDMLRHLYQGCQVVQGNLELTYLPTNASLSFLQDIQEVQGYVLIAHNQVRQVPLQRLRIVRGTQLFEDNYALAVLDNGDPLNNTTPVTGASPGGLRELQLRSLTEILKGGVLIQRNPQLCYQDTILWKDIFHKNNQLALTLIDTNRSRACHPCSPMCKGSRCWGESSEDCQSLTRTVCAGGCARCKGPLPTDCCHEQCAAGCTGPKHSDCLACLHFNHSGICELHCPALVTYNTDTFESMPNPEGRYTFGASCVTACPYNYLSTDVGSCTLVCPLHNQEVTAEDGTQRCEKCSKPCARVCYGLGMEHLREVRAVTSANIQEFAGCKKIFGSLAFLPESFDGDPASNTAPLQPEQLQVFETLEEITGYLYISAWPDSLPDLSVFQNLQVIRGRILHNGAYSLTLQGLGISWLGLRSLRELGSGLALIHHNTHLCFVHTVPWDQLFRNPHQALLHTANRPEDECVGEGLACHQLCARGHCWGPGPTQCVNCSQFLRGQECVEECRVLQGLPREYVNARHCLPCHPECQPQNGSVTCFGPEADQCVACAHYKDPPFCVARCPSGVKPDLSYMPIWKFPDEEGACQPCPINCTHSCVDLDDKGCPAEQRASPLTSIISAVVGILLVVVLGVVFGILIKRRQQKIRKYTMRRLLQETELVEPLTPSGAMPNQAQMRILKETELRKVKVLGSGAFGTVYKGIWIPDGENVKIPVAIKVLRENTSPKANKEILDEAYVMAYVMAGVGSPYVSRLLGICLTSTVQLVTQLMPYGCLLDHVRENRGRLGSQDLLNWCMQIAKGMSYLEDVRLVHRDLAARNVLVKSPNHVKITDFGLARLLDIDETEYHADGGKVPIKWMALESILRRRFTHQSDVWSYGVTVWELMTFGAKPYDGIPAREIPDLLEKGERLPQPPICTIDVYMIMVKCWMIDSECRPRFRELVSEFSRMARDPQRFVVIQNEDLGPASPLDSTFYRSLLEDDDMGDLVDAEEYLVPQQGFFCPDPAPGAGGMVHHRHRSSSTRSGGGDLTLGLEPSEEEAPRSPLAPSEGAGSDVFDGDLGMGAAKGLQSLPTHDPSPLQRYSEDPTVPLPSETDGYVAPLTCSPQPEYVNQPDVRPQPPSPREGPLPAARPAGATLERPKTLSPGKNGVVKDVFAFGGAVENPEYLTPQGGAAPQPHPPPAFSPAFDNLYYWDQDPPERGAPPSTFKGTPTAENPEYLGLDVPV
T3 sequence (P00533 25-1210 T790M/L858R): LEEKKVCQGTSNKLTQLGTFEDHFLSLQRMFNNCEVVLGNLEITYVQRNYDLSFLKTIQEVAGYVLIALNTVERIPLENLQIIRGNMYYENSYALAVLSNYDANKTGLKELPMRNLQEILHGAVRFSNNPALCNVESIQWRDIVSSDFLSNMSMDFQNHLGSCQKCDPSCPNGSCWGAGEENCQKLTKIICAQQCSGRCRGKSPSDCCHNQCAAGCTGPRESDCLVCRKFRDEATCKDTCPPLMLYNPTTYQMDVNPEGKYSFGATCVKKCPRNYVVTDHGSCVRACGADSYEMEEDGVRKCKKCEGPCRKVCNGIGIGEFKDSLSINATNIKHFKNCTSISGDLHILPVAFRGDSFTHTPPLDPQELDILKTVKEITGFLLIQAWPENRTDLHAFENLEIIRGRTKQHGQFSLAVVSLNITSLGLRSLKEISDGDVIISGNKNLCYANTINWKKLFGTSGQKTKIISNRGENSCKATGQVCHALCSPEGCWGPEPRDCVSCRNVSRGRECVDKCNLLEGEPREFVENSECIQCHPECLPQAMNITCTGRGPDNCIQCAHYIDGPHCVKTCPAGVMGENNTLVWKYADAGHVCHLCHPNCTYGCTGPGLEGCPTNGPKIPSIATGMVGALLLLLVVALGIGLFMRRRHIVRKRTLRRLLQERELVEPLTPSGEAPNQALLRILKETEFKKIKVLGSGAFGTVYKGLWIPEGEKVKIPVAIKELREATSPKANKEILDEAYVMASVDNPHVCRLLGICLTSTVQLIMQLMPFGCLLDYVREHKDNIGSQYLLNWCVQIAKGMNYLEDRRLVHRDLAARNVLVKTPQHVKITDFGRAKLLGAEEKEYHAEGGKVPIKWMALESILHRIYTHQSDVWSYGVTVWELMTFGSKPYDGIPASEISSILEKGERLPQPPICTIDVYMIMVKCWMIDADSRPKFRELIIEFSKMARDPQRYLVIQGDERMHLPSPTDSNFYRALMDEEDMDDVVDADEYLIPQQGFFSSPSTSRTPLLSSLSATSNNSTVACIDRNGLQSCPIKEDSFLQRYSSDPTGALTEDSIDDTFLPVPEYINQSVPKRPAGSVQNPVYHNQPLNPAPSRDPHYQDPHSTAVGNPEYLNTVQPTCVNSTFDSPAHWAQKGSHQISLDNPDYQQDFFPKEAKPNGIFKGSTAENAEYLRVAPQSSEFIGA
T2 sequence (P00533 with tags, fused parts or gaps INS769ASV): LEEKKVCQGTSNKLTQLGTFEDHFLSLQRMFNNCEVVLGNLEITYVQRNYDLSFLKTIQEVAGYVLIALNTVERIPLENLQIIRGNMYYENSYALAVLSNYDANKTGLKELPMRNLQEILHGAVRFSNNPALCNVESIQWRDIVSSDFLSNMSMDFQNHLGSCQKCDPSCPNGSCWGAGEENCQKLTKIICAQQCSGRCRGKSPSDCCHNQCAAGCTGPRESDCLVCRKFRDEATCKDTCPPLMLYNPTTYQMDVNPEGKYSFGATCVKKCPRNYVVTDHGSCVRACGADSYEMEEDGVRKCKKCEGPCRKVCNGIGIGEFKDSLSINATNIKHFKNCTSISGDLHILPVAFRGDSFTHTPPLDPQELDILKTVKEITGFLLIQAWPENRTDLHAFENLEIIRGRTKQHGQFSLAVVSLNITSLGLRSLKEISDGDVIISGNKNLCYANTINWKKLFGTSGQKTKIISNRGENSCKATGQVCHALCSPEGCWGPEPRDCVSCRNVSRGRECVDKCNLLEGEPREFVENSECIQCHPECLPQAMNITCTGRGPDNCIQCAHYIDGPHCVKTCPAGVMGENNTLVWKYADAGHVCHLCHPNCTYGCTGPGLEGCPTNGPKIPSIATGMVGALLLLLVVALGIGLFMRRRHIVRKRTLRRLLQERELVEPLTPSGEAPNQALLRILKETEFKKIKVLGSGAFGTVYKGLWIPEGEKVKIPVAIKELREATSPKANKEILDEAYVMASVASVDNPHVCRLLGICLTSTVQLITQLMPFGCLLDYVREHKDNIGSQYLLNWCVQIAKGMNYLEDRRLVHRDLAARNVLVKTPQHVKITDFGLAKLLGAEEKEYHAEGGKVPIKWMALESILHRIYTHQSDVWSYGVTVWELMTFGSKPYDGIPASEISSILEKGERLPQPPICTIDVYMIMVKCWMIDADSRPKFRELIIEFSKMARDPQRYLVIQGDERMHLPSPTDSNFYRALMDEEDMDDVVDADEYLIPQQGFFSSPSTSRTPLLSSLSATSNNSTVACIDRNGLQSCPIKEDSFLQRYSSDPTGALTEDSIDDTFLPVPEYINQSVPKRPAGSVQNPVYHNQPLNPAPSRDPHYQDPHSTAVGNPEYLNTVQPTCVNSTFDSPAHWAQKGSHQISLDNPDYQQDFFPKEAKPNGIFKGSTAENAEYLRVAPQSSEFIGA

Compound	IC50 [1] [nM]	IC50 [2] [nM]	IC50 [3] [nM]	IC50 [4] [nM]	IC50 [5] [nM]	GI50 [6] [nM]	GI50 [7] [nM]	GI50 [8] [nM]	GI50 [9] [nM]	GI50 [10] [nM]	GI50 [11] [nM]	GI50 [12] [nM]	GI50 [13] [nM]	GI50 [14] [nM]	IC50 [15] [nM]	IC50 [16] [nM]	IC50 [17] [nM]	hepatocyte CLint at 1 µM [19] [µL/min/1e6 cells]	hepatocyte CLint at 1 µM [20] [µL/min/1e6 cells]	also measured
C=CC(=O)Nc1cc(Nc2ncnc(Nc3cc(F)c(F)cc3C(C)(C)O)n2)c(OC)cc1N1CC(CN(C)C)C1 [Compound 23, N-(5-(4-(4,5-difluoro-2-(2-hydroxypropan-2-yl)phenylamino)-1,3,5-triazin-2-ylamino)-2-(3-((dimethylamino)methyl)azetidin-1-yl)-4-methoxyphenyl)acr ylamide]	321	87.6	1.3	52.7	101	224	159	34.7	271	76.8	1.49	3.93	3.71	> 3000	1.6	1.1	1.1	–	–	–
C=CC(=O)Nc1cc(Nc2ncnc(Nc3cc(Cl)c(F)cc3C(C)(C)O)n2)c(OC)cc1N1CC[C@@H]1CN(C)C [Compound 38, (R)-N-(5-(4-(5-chloro-4-fluoro-2-(2-hydroxypropan-2-yl)phenylamino)-1,3,5-triazin-2-ylamino)-2-(2-((dimethylamino)methyl)azetidin-1-yl)-4-methoxyphenyl)acrylamide]	19.6	8	0.9	9.3	18.9	59.4	46.2	3.9	84.8	19.7	0.7	1.62	1.49	> 3000	1.3	1.7	0.8	–	–	–
C=CC(=O)Nc1cc(Nc2ncnc(Nc3cc(Cl)c(F)cc3C(C)(C)O)n2)c(OC)cc1N1CC(CN(C)C)C1 [Compound 39, N-(5-(4-(5-chloro-4-fluoro-2-(2-hydroxypropan-2-yl)phenylamino)-1,3,5-triazin-2-ylamino)-2-(3-((dimethylamino)methyl)azetidin-1-yl)-4-methoxyphenyl)acrylamide]	45.6	29.9	1.8	13.2	30.1	71.8	76.6	5.5	69.9	26.5	1.74	1.69	1.47	> 3000	0.9	1.3	1	–	–	–
C=CC(=O)Nc1cc(Nc2nccc(Nc3cc(Cl)c(F)cc3C(C)(C)O)n2)c(OC)cc1N1CC[C@@H]1CN(C)C [Compound 53, (R)-N-(5-(4-(5-chloro-4-fluoro-2-(2-hydroxypropan-2-yl)phenylamino)pyrimidin-2-ylamino)-2-(2-((dimethylamino)methyl)azetidin-1-yl)-4-methoxyphenyl)acrylamide]	30	25.8	1.1	10.9	139	89.3	84	4	137	71.8	9.16	6.39	17.1	> 3000	3.8	3.8	3.1	12.3	4.04	SOA DN AUCSYS (ng·h/mL)/(mg/kg) ([18]; dose-normalised systemic AUC): 116 (ng·h/mL)/(mg/kg); Cmax ([18]; rat, plasma, nominal 10 mg/kg (actual dose in c1)): 195 ng/mL
C=CC(=O)Nc1cc(Nc2nccc(Nc3cc(Cl)c(F)cc3C(C)(C)O)n2)c(OC)cc1N1CC[C@@H](NC)C1 [Compound 80, (R)-N-(5-(4-(5-chloro-4-fluoro-2-(2-hydroxypropan-2-yl)phenylamino)pyrimidin-2-ylamino)-4-methoxy-2-(3-(methylamino)pyrrolidin-1-yl)phenyl)acr ylamide TFA salt]	95	36.8	4.5	51.8	350	220	177	14.8	467	81.5	23.7	40.2	> 3000	> 3000	5.8	5.7	3.4	15.5	2.81	–
